Tests used:
Assay type in all cases: physicochemical
[1] = Heat stability of HA solutions; settings: heated 60 minutes
Experimental: The effect of heat conditions on HA solution was also assessed. In 2 mL microcentrifuge vials, 1 mL samples of HA solutions of 500 ng/mL and 10 μg/mL were heated to 105° C. and 121EC respectively. The 500 ng/mL samples were heated for 0 minutes, 5 minutes, 30 minutes and 60 minutes while the 10 μg/mL samples were heated for 15 minutes, 30 minutes, 45 minutes and 60 minutes. The sample vials were quenched in a room temperature water bath and assayed with an ELISA assay kit for HA.

[2] = Dynamic release of HA from hydrogel lenses in lacrimal solution (ELISA); settings: largest HA, 1 million daltons; 6.5 mg HA per g PM
Experimental: Dynamic Release Studies. Dynamic release studies were conducted to measure how long a therapeutic contact lens would release drug in vitro under conditions similar to the eye surface. The studies are also able to reveal the order of the release.
The protocol for a kinetic release study begins with the synthesis of hydrogel as described previously. As each study was conducted in triplicate, three lenses were made of every HA-prepolymer formulation. A lacrimal solution isotonic with human tears (6.78 g/L NaCl, 2.18 g/L NaHCO3, 1.38 g/L Kcl, 0.084 g/L CaCl2 2H2O, pH 8) was pipetted into 50 mL centrifugation tubes, 20 mL per tube. Each lens was placed in a tube and incubated at 35EC on an orbital shaker. After measured time intervals, the lenses were extracted and deposited into fresh lacrimal solution. The lacrimal solution with HA released in it was stored at 4° C. until essayed. After data had been collected for 3-5 days, an ELISA assay for HA was used to determine the concentration in each release sample. If necessary, the samples were diluted to bring into the assay detection range.
Cumulative release curves were plotted for each lens formulation, and the data was used to calculate the rate of diffusion of HA from the hydrogel. The transport of the drug from the lens placed in a fluid environment was mathematically modeled. […]

[3] = Dynamic HPMC release studies, perfect sink (Sotax dissolution apparatus, DI water); settings: soaked LFB lenses
Experimental: Dynamic HPMC Release Studies. Dynamic release studies were conducted to measure how long each therapeutic contact lens would release HPMC in-vitro. The studies were conducted with the perfect sink model in order to sustain the greatest driving force, using a Sotax Dissolution Apparatus (Horsham, Pa.), in which loaded lenses were placed in 250 mL of DI water (pH 6.4). Separate experiments were conducted to confirm the perfect sink volume.
In the Sotax apparatus, the release media was stirred at a constant rate of 30 rpm by paddles and kept at a constant temperature of 34° C. The average weight of the lenses out of the mold was 35 mg±6 mg. HPMC concentration in the release medium was determined via HPLC (Shimadzu, Japan) equipped with a refractive index detector. The mobile phase was deionized water, and a flow rate of 1 mL/min was maintained by the HPLC. A standard curve of refractive index and known HPLC concentration was established. Percent mass release curves were plotted for each lens.

[4] = Loading of HPMC into LFB lenses by soaking in aqueous HPMC solution
From the text: The first step of this work was to assess the feasibility of loading HPMC directly into a lens. […] The mass uptake of various HPMC solutions is presented in Table 2 (showing mass loading of various HPMC concentrations and molecular weights).

[5] = Pre-polymer loading of HPMC into LFB lens formulation
Experimental: Synthesis of LFB Lenses and Synthesis of Imprinted LFB Lenses. Lenses were produced by mixing individual monomers of the LFB formulation. The monomers were kept refrigerated at 4° C. A typical formulation consisted of 1300 mg of Betacon macromer, 1300 mg of TRIS, and 1300 mg of DMA (referred to as the base formulation). The base formulation was equal parts of these monomers and used to calculate ratios of other components. Equal weights of EGDMA and PEG200DMA were added to a desired concentration anywhere between 0 and 10 wt % of the base formulation Imprinting monomers were then added between 0 and 10 wt % of the base formulation. Darocur 1173 was added to the solution to a concentration of 1% of the base formulation. The samples were thoroughly mixed by sonication for 30 minutes and then the comfort agent was added to the desired concentration. The formulations were exposed to high shear mixing for up to 1 minute and sonicated for at least 15 minutes to remove any dissolved air or air bubbles. After the comfort agent was added, the sample was sonicated and mixed until evenly dispersed.
A fixed volume was pipetted into polypropylene (PP) lens molds provided by CIBA Vision, Inc. The mass of formulation pipetted varied between 100 to 200 mg depending on the concentration of comfort agent. […]

Substance | change in signal strength (heat degradation of large HA) ([1]; 500 ng/mL solution) [%] | change in concentration (heat degradation of large HA) ([1]; 10 μg/mL solution) [%] | time HA was diffusing out of the lens [2] | Release Time After 7 Day Soak [3] | release time from soaked lenses [3] | Mass Loaded from Drug Solutions ([4]; 1 Day Soak, 0.1%) [μg/lens] | Mass Loaded from Drug Solutions ([4]; 1 Day Soak, 1%) [μg/lens] | Mass Loaded from Drug Solutions ([4]; 1 Day Soak, 10%) [μg/lens] | Mass Loaded from Drug Solutions ([4]; 2 Day Soak, 0.1%) [μg/lens] | Mass Loaded from Drug Solutions ([4]; 2 Day Soak, 1%) [μg/lens] | Mass Loaded from Drug Solutions ([4]; 2 Day Soak, 10%) [μg/lens] | Mass Loaded from Drug Solutions ([4]; 7 Day Soak, 0.1%) [μg/lens] | Mass Loaded from Drug Solutions ([4]; 7 Day Soak, 1%) [μg/lens] | Mass Loaded from Drug Solutions ([4]; 7 Day Soak, 10%) [μg/lens] | loading of HPMC limited by thickness ([5]; 100 μm swollen lens thickness) | maximum mass of HPMC loaded (pre-polymer loaded) ([5]; 350 μm thick lens) | loading after soaking in a solution for a week ([4]; any solution concentration) [μg/lens]
Hyaluronic Acid [HA] | 50 | 30 | up to 3 days |  |  |  |  |  |  |  |  |  |  |  |  |  | 
hydroxypropyl methylcellulose [HPMC 10 KDa] |  |  |  | 30 min | less than 30 minutes | 0.32 | 4.1 | 5.4 | 0.21 | 3.2 | 6.9 | 1.2 | 5.7 | 2.9 |  |  | 
hydroxypropyl methylcellulose [HPMC 90 KDa] |  |  |  | None |  | 0.09 | 0.07 | 0.4 | 0.09 | 0.65 | 0 | 0.01 | 0.48 | 0 |  |  | 
hydroxypropyl methylcellulose [HPMC 120 KDa] |  |  |  | None |  | 0.001 | 0.003 | 0.004 | 0.08 | 0.04 | 0.01 | 0.006 | 0.2 | 0.1 | ~1,000 μg/lens | ~8,000 μg/lens | ≤ 0.2

— patent US9238003B2, “Extended or continuous wear silicone hydrogel contact lenses for the extended release of comfort molecules” (AUBURN UNIVERSITY, priority 2005, dated 2016)
